Results as given in ChEMBL document CHEMBL1201862, “PubChem BioAssay data set” (2004).
Counter-ions that a name gives are not always drawn.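 Cultured in 96-well plates, cells were exposed to test compound for 48 hours across five concentrations. Here, GI50 denotes the concentration required for 50% inhibition of growth.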 Active and inactive are the calls of the source. Rule as the data show it: active = GI50 up to about 1.1 µM and inactive = higher.

Legend:
Assay in all cases: NCI tumour cell line growth inhibition, 48 h
[1] = test system: COLO 205
[2] = test system: HOP-92
[3] = test system: UACC-62
[4] = test system: SK-MEL-2
[5] = test system: Malme-3M
[6] = test system: IGROV-1
[7] = test system: CCRF-CEM
[8] = test system: SF-295
[9] = test system: 786-0
[10] = test system: NCI-H522
[11] = test system: A549
[12] = test system: OVCAR-5
[13] = test system: K562
[14] = test system: ACHN
[15] = test system: SN12C
[16] = test system: SK-MEL-5
[17] = test system: MDA-MB-231
[18] = test system: A498
[19] = test system: HCT-15
[20] = test system: SNB-75

SMILES | GI50 [1] | GI50 [2] | GI50 [3] | GI50 [4] | GI50 [5] | GI50 [6] | GI50 [7] | GI50 [8] | GI50 [9] | GI50 [10] | GI50 [11] | GI50 [12] | GI50 [13] | GI50 [14] | GI50 [15] | GI50 [16] | GI50 [17] | GI50 [18] | GI50 [19] | GI50 [20]
CC(O)c1c2c(cc3c1CC1(C3)Cc3cc4c(c(C(C)O)c3C1)CCC4)CCC2 (stereo not given) | 13.4 µM (inactive) | 15.3 µM (inactive) | 19.3 µM (inactive) | 26.9 µM (inactive) | 15.9 µM (inactive) | 20.3 µM (inactive) | 5.82 µM (inactive) | 21 µM (inactive) | 14.8 µM (inactive) | 13.1 µM (inactive) | 13.6 µM (inactive) | 22.5 µM (inactive) | 9.59 µM (inactive) | 11.2 µM (inactive) | 16.7 µM (inactive) | 13 µM (inactive) | 16.8 µM (inactive) | 14.9 µM (inactive) | 14.8 µM | –
O=[N+]([O-])c1ccc(Cl)c(CNc2ncnc3c2ncn3C2CCCCO2)c1 (stereo not given) | 42.2 µM (inactive) | 42.3 µM (inactive) | 22.8 µM (inactive) | 28.5 µM (inactive) | 64.9 µM (inactive) | 58.2 µM (inactive) | – | 52 µM (inactive) | 63.8 µM (inactive) | 32.8 µM (inactive) | 41.7 µM (inactive) | > 100 µM (inactive) | 31.4 µM (inactive) | 44.9 µM (inactive) | 29.6 µM (inactive) | 21.7 µM (inactive) | 32.9 µM (inactive) | 12.4 µM (inactive) | 33.9 µM | 43.6 µM (inactive)
CCOc1ccc(N/C(=C(/C(Cl)=C(/Cl)N2CCCCC2)[N+](=O)[O-])n2nnc3ccccc32)cc1 | 20.6 µM (inactive) | 18.2 µM (inactive) | 14.4 µM (inactive) | 16.7 µM (inactive) | 21.7 µM (inactive) | – | – | 22.4 µM (inactive) | 18.7 µM (inactive) | 6.31 µM (inactive) | 21.5 µM (inactive) | 16.7 µM (inactive) | 17.4 µM (inactive) | 16.2 µM (inactive) | 19.3 µM (inactive) | 15.6 µM (inactive) | 20.9 µM (inactive) | 18.3 µM (inactive) | 11.1 µM | 19.9 µM (inactive)
COc1ccccc1N1C(=O)/C(=C\c2cc(OC)c(OC)c(OC)c2)S(=O)(=O)C1c1ccccc1 (stereo not given) | 26.9 µM (inactive) | 33.3 µM (inactive) | 29.9 µM (inactive) | 26.9 µM (inactive) | 26.9 µM (inactive) | – | 15.6 µM (inactive) | 23.8 µM (inactive) | 54.7 µM (inactive) | 17 µM (inactive) | 44 µM (inactive) | – | 28.6 µM (inactive) | 41.2 µM (inactive) | 73.6 µM (inactive) | 26.4 µM (inactive) | 52.6 µM (inactive) | 48.2 µM (inactive) | 29.5 µM | –
NCCCCN [PUTRESCINE HYDROCHLORIDE] | > 100 µM (inactive) | > 100 µM (inactive) | > 100 µM (inactive) | > 100 µM (inactive) | > 100 µM (inactive) | > 100 µM (inactive) | > 100 µM (inactive) | > 100 µM (inactive) | > 100 µM (inactive) | > 100 µM (inactive) | > 100 µM (inactive) | > 100 µM (inactive) | > 100 µM (inactive) | > 100 µM (inactive) | – | > 100 µM (inactive) | > 100 µM (inactive) | > 100 µM (inactive) | > 100 µM | > 100 µM (inactive)
Cc1cn([C@H]2C[C@H](N=[N+]=[N-])[C@@H](CO)O2)c(=O)[nH]c1=O [ZIDOVUDINE] | 98.4 µM (inactive) | > 100 µM (inactive) | 239 µM (inactive) | > 100 µM (inactive) | > 100 µM (inactive) | > 100 µM (inactive) | 288 µM (inactive) | – | > 100 µM (inactive) | > 100 µM (inactive) | > 97.3 µM (inactive) | > 84.5 µM (inactive) | 177 µM (inactive) | > 100 µM (inactive) | > 100 µM (inactive) | 118 µM (inactive) | > 100 µM (inactive) | 66.2 µM (inactive) | > 100 µM | –
